Test results taken from US20060029548A1, “Methods of diagnosing, monitoring and treating pulmonary diseases” (priority 2004, published 2006).
Values joined by “and” are separate entries in the source; they are usually repeats but may differ in a detail not shown here. Equal values may be shown once. “Also recorded” adds a separate entry of the source.

Key:
[1] = tested on: pulmonary RAR-containing afferent nerve fiber; test: Vagal activation experiments in dogs: action potentials in RAR-containing fibers; format: in vivo; settings: anesthetized dog
Method: The experiments described in Example 5 were performed essentially as described in Pelleg et al. [(1996) J. Physiol. 490(1):265-275] and U.S. Pat. No. 5,874,420, both of which are incorporated herein by reference in their entirety. In brief, they were performed on anesthetized (sodium pentobarbitone, 30 mg kg^−1 plus 3 mg kg^−1 h^−1, intravenous) dogs artificially ventilated with room air using a respirator. Arterial blood pH, PO2, PCO2, body temperature were maintained as described in U.S. Pat. No. 5,874,420. A peripheral vein was cannulated for the administration of physiological saline solution and maintenance doses of anesthetic. Catheters were introduced via the femoral vein and left atrial appendage and positioned in the right atrium and left atrium for the administration of test solutions. The chest was opened by a longitudinal sternotomy. The right cervical vagosympathetic trunk was exposed by a midcervical longitudinal section of the skin and careful dissection of neck muscles and connective tissues. The edges of the cut skin were elevated and secured to create a trough which was filled with warm (about 37° C.) mineral oil. A section of the vagosympathetic trunk was placed on a small plate of black Perspex™ and fine branches were separated from the main bundle by careful dissection using microsurgical tools and a dissecting microscope (Model F212, Jenopik Jena, GmbH, Germany).
Extracellular neural action potentials were recorded using a custom-made bipolar electrode that contained two platinum-iridium wires (1.25 cm×0.0125 cm) connected to a high-impedence first-stage differential amplifier (model AC8331, CW, Inc., Ardmore, Pa.) via a shielded cable. The output of the first-stage amplifier was fed into a second-stage differential amplifier (model BMA-831/C, CWE, Inc.). Isolated fibers were laid on the pair of platinum-iridium wires. Vagal C fibers with chemosensitive endings have a sparse irregular discharge which is not associated with cardiac or respiratory cycles. Confirmation of fiber type was obtained by: first monitoring the response to capsaicin (10 microg kg^−1, intra-right atrial bolus); second, monitoring the response to mechanical stimulation of the lungs using gentle probing with forceps as well as inflation of the lungs to 2-3 times the tidal volume; and third, determining the speed of conduction using a stimulating electrode positioned distal to the initial recording site. Nerve fibers with RAR on their pulmonary endings, spontaneously fire a brief (i.e., short lasting) volley of action potentials associated with peak tracheal pressure during each respiratory cycle.
[…] Volume controls consisted of either 5 ml+5 ml or 1 ml+3 ml physiological saline. All injections were performed in the same mode by the same person. To exclude involvement of baroreceptors in the recorded neural activity, the latter was monitored before and after a bolus of nitroglycerine (1 mg; intravenous).
The procedure described in Example 1 was used to measure action potentials in dog pulmonary fibers with RAR on their terminals following administration of various agents. RAR activation generated a brief volley of action potentials associated with each respiratory cycle that was seen before as well as after administration of ATP (FIG. 7). […] Thus ATP modified the activity of the RAR-containing fiber manifested in their transient loss of the rapid adaptability characteristic.

[2] = tested on: human subjects (airway responsiveness, FEV1); test: Inhalation challenge test: airway responsiveness measured as change in FEV1 (PD20); format: in vivo; settings: for PD20 geometric mean: non-responders excluded; for PD20: individual subjects
Source text: The clinical study described in Examples 2-4 was randomized, double blind, crossover, and controlled. Each subject attended the laboratory on three occasions. Procedures on the initial screening visit included obtaining information about the study and a number of investigations in the following order: medical history, lung function, reversibility and skin prick testing. At visit 2 and 3, separated by 2-7 days, the subjects were subjected to either an ATP or AMP challenge in a randomized fashion such that, by the end of the study, each patient had been tested with both compounds. Before, immediately after, and 30 minutes after the challenge, lung function and Borg score for dyspnoea were determined, and symptoms other than dyspnoea were recorded.
In the clinical study described in Examples 2-4, spirometric tests were performed using a dry spirometer (Vitalograph Ltd., Buckingham, England) and the best value of the three expiratory manoeuvers was expressed as liters and percentage of the predicted.
For the tests described in Examples 2-4, ATP and AMP (Sigma, Gillingham, Dorset, England) were dissolved freshly in normal saline solution to produce a range of doubling concentrations from 0.227-929 umol/ml for ATP and from 0.138-1152 umol/ml for AMP and immediately used for bronchial challenge. The solutions were administered using a breath-activated dosimeter (Mefar, Bovezzo, Italy) with an output of 10 ul per inhalation [Prieto et al. (2003) Chest 123:993-997]. The subjects, while wearing a nose clip, inhaled (via a mouthpiece) five breaths of normal saline, followed by sequential doubling concentrations of either ATP or AMP from functional residual capacity to total lung capacity. FEV1 was measured from two minutes after the fifth inhalation of normal saline until there was a fall in FEV1 of ≧20% of its value recorded after saline inhalation or until maximal concentration of either ATP or AMP was inhaled. The provocative dose causing a 20% decrease in FEV1 (PD20) was calculated by interpolation of the logarithmic dose response curve.
All data from the analyses described in Examples 2-4 were performed with a software package (GraphPad Prism Software, Inc., USA). The significance of differences among groups was assessed by Student's t-test, and analysis of categorical variables was examined by Chi-square test. Pearson's correlation coefficient and linear regression analysis were used to analyze the relationship between the percentage decreases in FEV1 and Borg score. The PD20 values for ATP and AMP were logarithmically transformed to normalize their distribution and presented as geometric means. All other numerical variables were expressed as the mean±SEM and significance was defined as p<0.05.

**Q.** For `Nc1ncnc2c1ncn2[C@@H]1O[C@H](COP(=O)(O)OP(=O)(O)OP(=O)(O)O)[C@@H](O)[C@H]1O` [ATP, adenosine 5′-triphosphate], which “desensitization on repeated administrations” value ([1]; RAR-containing fibers) is on record?
**A.** not associated with desensitization

**Q.** What about the “effect on action potentials of RAR-containing fibers” value ([1]; rapid bolus, ATP 6 μmol/kg, capsaicin 10 ug kg−1, analogs 0.75 umol kg−1) of the same compound?
**A.** activity of RAR-containing fibers was prolonged; also recorded: stimulated both the C fibers and RAR-containing fibers

**Q.** What about the patients with bronchoconstriction ([2]; 19 smoking subjects (seven healthy smokers, seven smokers at risk, five COPD)) of the same compound?
**A.** 42%

**Q.** And the “mean PD20” value ([2]; ATP-responsive COPD patients)?
**A.** 178.5 µmol/mL

**Q.** What about the PD20 geometric mean ([2]; COPD (n = 7)) of the same compound?
**A.** 178.5 µmol/mL

**Q.** And the “patients who responded to challenge” value ([2]; COPD patients)?
**A.** 67%

**Q.** What about the “PD20 geometric mean (range)” value ([2]; all subjects who had airway responsiveness) of the same compound?
**A.** 72.9 (2.9-808.7) umol/ml

**Q.** What about the PD20 geometric mean ([2]; asthma (n = 10)) of the same compound?
**A.** 48.7 µmol/mL

**Q.** What about the “mean PD20” value ([2]; asthma patients) of the same compound?
**A.** 48.7 µmol/mL

**Q.** What about the response to challenge ([2]; healthy non-smokers, no change in FEV1 or reduction of less than 20%) of the same compound?
**A.** negative

**Q.** What about the “control subjects who responded” value ([2]; healthy smoker control subjects) of the same compound?
**A.** three of seven

**Q.** And the “subjects who responded to challenge” value ([2]; healthy smokers)?
**A.** 57%

**Q.** What about the PD20 geometric mean ([2]; healthy smokers (n = 7)) of the same compound?
**A.** 197.0 µmol/mL

**Q.** What about the PD20 ([2]; COPD (n = 7)) of the same compound?
**A.** 2.9 μmol/ml and >929 μmol/ml (2×) and 242.8 μmol/ml and 72.0 μmol/ml and 163.1 μmol/ml and 808.7 μmol/ml

**Q.** And the PD20 ([2]; asthma (n = 10))?
**A.** 44.8 µmol/mL and 23.6 µmol/mL and 20.9 µmol/mL and 67.9 µmol/mL and 92.2 µmol/mL and 160.6 µmol/mL and 18.1 µmol/mL and 28.1 µmol/mL and 137.0 µmol/mL and 49.0 µmol/mL

**Q.** What about the PD20 ([2]; healthy smokers (n = 7)) of the same compound?
**A.** 303.4 μmol/ml and >929 μmol/ml (3×) and 70.2 μmol/ml and 442.4 μmol/ml and 159.9 μmol/ml

**Q.** And the PD20 ([2]; non-smokers (n = 10), provocative dose causing 20% decrease in FEV1)?
**A.** >929 µmol/mL

**Q.** And the PD20 ([2]; smokers at risk (n = 7))?
**A.** >929 μmol/ml (6×) and 52.8 μmol/ml

**Q.** What about the PD20 geometric mean ([2]; non-smokers (n = 10)) of the same compound?
**A.** >929 µmol/mL

**Q.** And the “subjects responsive to challenge” value ([2]; of the 40 subjects in the study)?
**A.** 47.5%

**Q.** What about the “patients who responded to challenge” value ([2]; patients with asthma) of the same compound?
**A.** 100%

**Q.** And the “ΔFEV1 (decrease in FEV1 as percentage of baseline FEV1)” value ([2]; patients with asthma)?
**A.** 29%

**Q.** And the “subjects who responded to challenge” value ([2]; smokers at risk)?
**A.** 14%

**Q.** And the PD20 geometric mean ([2]; smokers at risk (n = 7))?
**A.** 52.8 µmol/mL
